Publication PMC12473319, “TDMQ20 as A Drug Candidate for Wilson’s Disease: Comparison with D-Penicillamine, Trientine, and Tetrathiomolybdate In Vitro and In Mice” (Pharmaceutics, 2025)
Like-named read-outs stand apart in the source and are kept apart here.

Target: T1, Cu,Zn-SOD (Cu,Zn-superoxide dismutase) (Bos taurus, UniProt P00442)
T1 construct: gene SOD1
Experiment: SOD kit (xanthine/xanthine oxidase, WST-1 formazan at […] nm) after […] h pre-incubation with chelator
Type: biochemical

T1 sequence (P00442 2-152): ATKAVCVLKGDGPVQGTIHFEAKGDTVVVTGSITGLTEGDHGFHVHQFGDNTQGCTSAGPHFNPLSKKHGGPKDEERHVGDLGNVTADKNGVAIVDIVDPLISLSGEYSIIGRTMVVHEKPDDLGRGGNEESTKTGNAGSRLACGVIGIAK

CC(C)(S)[C@@H](N)C(=O)O [DPA, 3-mercapto-D-valine]
IC50 (read-out: IC50): 50 to 100 µM

[S]=[Mo](=[S])([SH])[SH] [bcTTM, Bis-choline-tetrathiomolybdate]
IC50: < 0.2 µM
